Laboratory results from US9521850B2 (University of Florida Research Foundation, Incorporated, priority 2012, dated 2016).
≈ marks a conversion by molar mass, not a printed value.

Tests used:
[1] = tested on: Rhizobium etli; test: microbe, parasite or virus in culture; type: cell-based
[2] = tested on: Sinorhizobium meliloti; test: microbe, parasite or virus in culture; type: cell-based
[3] = tested on: Bradyrhizobium japonicum; test: microbe, parasite or virus in culture; type: cell-based
[4] = tested on: Mesorhizobium loti; test: microbe, parasite or virus in culture; type: cell-based
[5] = tested on: Agrobacterium tumefaciens; test: microbe, parasite or virus in culture; type: cell-based
[6] = tested on: Xanthomonas citri; test: microbe, parasite or virus in culture; type: cell-based, Xanthomonas citri subsp. citri
[7] = tested on: Liberibacter crescens; test: microbe, parasite or virus in culture; type: cell-based
[8] = tested on: CLAS populations; test: Effect on CLAS populations, mean Ct by quantitative PCR (Example 2)

Structure (SMILES) | MBC ([1]; 24 hrs) [µg/mL] | MIC ([1]; 24 hrs) [µg/mL] | MBC ([1]; 120 hrs) [µg/mL] | MIC ([1]; 120 hrs) [µg/mL] | MBC [2] [µg/mL] | MIC [2] [µg/mL] | MBC ([3]; 24 hrs) [µg/mL] | MIC ([3]; 24 hrs) [µg/mL] | MBC ([3]; 120 hrs) [µg/mL] | MIC ([3]; 120 hrs) [µg/mL] | MBC [4] [µg/mL] | MIC [4] [µg/mL] | MBC [5] [µg/mL] | MIC [5] [µg/mL] | MBC [6] [µg/mL] | MIC [6] [µg/mL] | MBC ([7]; 24 h) [µg/mL] | MIC ([7]; 24 h) [µg/mL] | MBC ([7]; 120 h) [µg/mL] | MIC ([7]; 120 h) [µg/mL] | further results
O=C1CC(c2ccccc2)CC2=C1C(c1ccc(O)cc1)Nc1ccc(C(=O)c3ccccc3)cc1N2 (stereo not shown) [SA6, 7-Benzoyl-11-(4-hydroxy-phenyl)-3-phenyl-2,3,4,5,10,11-hexahydro-1H-dibenzo[b,e] [1,4]diazepin-1-one] | 32 (≈ 65.8 µM) | 32 (≈ 65.8 µM) | 64 (≈ 132 µM) | 64 (≈ 132 µM) | 32 (≈ 65.8 µM) | 32 (≈ 65.8 µM) | 32 (≈ 65.8 µM) | 16 (≈ 32.9 µM) | 32 (≈ 65.8 µM) | 32 (≈ 65.8 µM) | 32 (≈ 65.8 µM) | 16 (≈ 32.9 µM) | 64 (≈ 132 µM) | 16 (≈ 32.9 µM) | 128 (≈ 263 µM) | 64 (≈ 132 µM) | 16 (≈ 32.9 µM) | 16 (≈ 32.9 µM) | 64 (≈ 132 µM) | 32 (≈ 65.8 µM) | –
Cc1cc([C@H]2Nc3ccc(C(=O)c4ccccc4)cc3NC3=C2C(=O)CC(C)(C)C3)cc(C)c1O [SA9, 11-(4-hydroxy-3,5-dimethyl-phenyl)-3,3-dimethyl-7-(phenyl-carbonyl)-2,3,4,5,10,11-hexahydro-1H-dibenzo[b,e] [1,4]diazepin-1-one] | 16 (≈ 34.3 µM) | 8 (≈ 17.1 µM) | 32 (≈ 68.6 µM) | 16 (≈ 34.3 µM) | 32 (≈ 68.6 µM) | 16 (≈ 34.3 µM) | 32 (≈ 68.6 µM) | 16 (≈ 34.3 µM) | 64 (≈ 137 µM) | 32 (≈ 68.6 µM) | 32 (≈ 68.6 µM) | 16 (≈ 34.3 µM) | 64 (≈ 137 µM) | 32 (≈ 68.6 µM) | 64 (≈ 137 µM) | 32 (≈ 68.6 µM) | 16 (≈ 34.3 µM) | 16 (≈ 34.3 µM) | 64 (≈ 137 µM) | 32 (≈ 68.6 µM) | –
CC(C)[C@H](NC(=O)c1c(F)cccc1F)C(=O)Nc1ccc(-n2cnnn2)cc1 [SA1, 2,6-Difluoro-N-[(2S)-3-methyl-1-oxo-1-{[4-(1H-tetrazol-1-yl)phenyl]amino}-2-butanyl] benzamide] | 32 (≈ 79.9 µM) | 16 (≈ 40 µM) | 64 (≈ 160 µM) | 32 (≈ 79.9 µM) | 32 (≈ 79.9 µM) | 16 (≈ 40 µM) | 16 (≈ 40 µM) | 16 (≈ 40 µM) | 32 (≈ 79.9 µM) | 32 (≈ 79.9 µM) | 32 (≈ 79.9 µM) | 16 (≈ 40 µM) | 64 (≈ 160 µM) | 32 (≈ 79.9 µM) | 128 (≈ 320 µM) | 64 (≈ 160 µM) | 16 (≈ 40 µM) | 16 (≈ 40 µM) | 32 (≈ 79.9 µM) | 32 (≈ 79.9 µM) | –
CN(C)[C@@H]1C(O)=C(C(N)=O)C(=O)[C@@]2(O)C(O)=C3C(=O)c4c(O)cccc4[C@@](C)(O)[C@H]3[C@H](O)[C@@H]12 [Oxytetracycline, reference compound] | 4 (≈ 8.69 µM) | 4 (≈ 8.69 µM) | 4 (≈ 8.69 µM) | 4 (≈ 8.69 µM) | – | – | 4 (≈ 8.69 µM) | 4 (≈ 8.69 µM) | 4 (≈ 8.69 µM) | 4 (≈ 8.69 µM) | – | – | – | – | – | – | – | – | 8 (≈ 17.4 µM) | 8 (≈ 17.4 µM) | mean Ct value (CLAS populations) ([8]; 2 days after treatment): 26.10 b; mean Ct value (CLAS populations) ([8]; 4 days after treatment): 25.61 b; mean Ct value (CLAS populations) ([8]; Before treatment): 25.36 a
O=C1CCCC2=C1[C@H](c1ccccc1)Nc1ccc(C(=O)c3ccccc3)cc1N2 [SA4, (11S)-7-Benzoyl-11-phenyl-2,3,4,5,10,11-hexahydro-1H-dibenzo[b,e] [1,4]diazepin-1-one] | 16 (≈ 40.6 µM) | 8 (≈ 20.3 µM) | 32 (≈ 81.1 µM) | 16 (≈ 40.6 µM) | 64 (≈ 162 µM) | 32 (≈ 81.1 µM) | 16 (≈ 40.6 µM) | 8 (≈ 20.3 µM) | 16 (≈ 40.6 µM) | 16 (≈ 40.6 µM) | 32 (≈ 81.1 µM) | 16 (≈ 40.6 µM) | 64 (≈ 162 µM) | 16 (≈ 40.6 µM) | 64 (≈ 162 µM) | 32 (≈ 81.1 µM) | 32 (≈ 81.1 µM) | 16 (≈ 40.6 µM) | 64 (≈ 162 µM) | 32 (≈ 81.1 µM) | –
COc1ccc(N(C(=O)c2ccc(-n3cnnn3)cc2)C2(C(=O)Nc3ccccc3C)CCCCC2)cc1 [SSC11, N-(4-methoxy-phenyl)-N-{1-[(2-methyl-phenyl)carbamoyl]cyclohexyl}-4-(1H-tetrazol-1-yl)benzamide] | 32 (≈ 62.7 µM) | 16 (≈ 31.3 µM) | 64 (≈ 125 µM) | 32 (≈ 62.7 µM) | 64 (≈ 125 µM) | 32 (≈ 62.7 µM) | 16 (≈ 31.3 µM) | 16 (≈ 31.3 µM) | 32 (≈ 62.7 µM) | 32 (≈ 62.7 µM) | 32 (≈ 62.7 µM) | 16 (≈ 31.3 µM) | 128 (≈ 251 µM) | 32 (≈ 62.7 µM) | 64 (≈ 125 µM) | 32 (≈ 62.7 µM) | 16 (≈ 31.3 µM) | 16 (≈ 31.3 µM) | 32 (≈ 62.7 µM) | 32 (≈ 62.7 µM) | –
COc1ccc(C2Nc3ccc(C(=O)c4ccccc4)cc3NC3=C2C(=O)CC(c2ccccc2)C3)cc1 (stereo not shown) [SA5, 7-Benzoyl-11-(4-methoxy-phenyl)-3-phenyl-2,3,4,5,10,11-hexahydro-1H-dibenzo[b,e] [1,4]diazepin-1-one] | 16 (≈ 32 µM) | 16 (≈ 32 µM) | 32 (≈ 63.9 µM) | 32 (≈ 63.9 µM) | 64 (≈ 128 µM) | 32 (≈ 63.9 µM) | 16 (≈ 32 µM) | 16 (≈ 32 µM) | 32 (≈ 63.9 µM) | 32 (≈ 63.9 µM) | 32 (≈ 63.9 µM) | 16 (≈ 32 µM) | 64 (≈ 128 µM) | 32 (≈ 63.9 µM) | 128 (≈ 256 µM) | 64 (≈ 128 µM) | 16 (≈ 32 µM) | 8 (≈ 16 µM) | 32 (≈ 63.9 µM) | 16 (≈ 32 µM) | –
